Assay [1] is filed under the species Homo sapiens. Nature of the assay: Binding affinity to SGLT1 D621W mutant (unknown origin) by tryptophan fluorescence quenching method.
The species entered for assay [2] is Homo sapiens. Nature of the assay: Binding affinity to SGLT1 R601W mutant (unknown origin) by tryptophan fluorescence quenching method.
Assay [3] deals with T1, Sodium/glucose cotransporter 2 (Rattus norvegicus, UniProt P53792).
T1 sequence (P53792 whole entry): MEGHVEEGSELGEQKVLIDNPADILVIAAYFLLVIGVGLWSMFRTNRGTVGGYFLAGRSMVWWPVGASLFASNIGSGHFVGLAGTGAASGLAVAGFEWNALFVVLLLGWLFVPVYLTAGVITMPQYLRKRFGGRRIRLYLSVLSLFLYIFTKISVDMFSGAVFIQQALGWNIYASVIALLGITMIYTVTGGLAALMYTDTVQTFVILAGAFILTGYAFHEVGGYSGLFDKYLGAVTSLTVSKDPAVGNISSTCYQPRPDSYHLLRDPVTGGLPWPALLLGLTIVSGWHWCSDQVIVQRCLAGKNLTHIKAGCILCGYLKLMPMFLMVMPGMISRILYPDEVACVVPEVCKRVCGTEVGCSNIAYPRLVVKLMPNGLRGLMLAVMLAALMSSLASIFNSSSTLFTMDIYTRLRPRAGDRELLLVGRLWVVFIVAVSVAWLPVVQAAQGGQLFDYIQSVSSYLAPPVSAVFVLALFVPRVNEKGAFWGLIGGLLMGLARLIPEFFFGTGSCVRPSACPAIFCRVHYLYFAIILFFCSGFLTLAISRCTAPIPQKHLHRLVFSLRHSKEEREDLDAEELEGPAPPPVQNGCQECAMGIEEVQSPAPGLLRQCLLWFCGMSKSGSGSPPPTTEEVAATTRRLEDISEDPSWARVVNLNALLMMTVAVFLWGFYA
As to the kind of experiment: Binding affinity to SGLT2 in isolated rat renal cortex brush border membranes using maleimide-PEG800-NHS to couple compound to AFM cantilever tip.

Among the data in ChEMBL document CHEMBL3817784, “The role of transporter ectodomains in drug recognition and binding: phlorizin and the sodiumglucose cotransporter” (Medchemcomm, 2016) are Qmax and Kd values, retold here.

As usually defined, the Kd is the concentration at which binding is half-saturated. Lower therefore signals tighter binding.

For `O=C(CCc1ccc(O)cc1)c1c(O)cc(O)cc1O[C@@H]1O[C@H](CO)[C@@H](O)[C@H](O)[C@H]1O`, the results for the Qmax in the assay listed under Homo sapiens [1] and in the assay filed under Homo sapiens [2] were 80% and 67%, respectively.

For `O=C(CCCCCS)Nc1cc(CCC(=O)c2c(O)cc(O)cc2O[C@@H]2O[C@H](CO)[C@@H](O)[C@H](O)[C@H]2O)ccc1O`, binding in assay [3] was put at a Kd of 200 nM.
